Where two headings read alike, the source gives them in different places.
Columns and labels:
[1] = tested on: human KRAS mutant NSCLC tumor xenografts; test: KRAS mutant NSCLC tumor xenografts in vivo; design: species or system mouse; details: single agent
Method: Female immunodeficient CD-1 (nude) mice (Charles River Laboratories, Wilmington, Mass.) were maintained in a pathogen-free environment, and all in vivo procedures were approved by the Synta Pharmaceuticals Corp. Institutional Animal Care and Use Committee. A549 NSCLC cells (7.5×10^6) were subcutaneously implanted into the animals. […] Tumor growth inhibition was determined as described previously. See Proia et al, PLoS One. 2011; 6(4):e18552.

NSCLC = test: Phase 2 clinical trial in NSCLC by KRAS, EGFR and ALK mutation status; format: in vivo, human
Method: Initial cohorts were defined by mutation status: A) EGFR mutation, KRAS wild-type B) EGFR wild-type, KRAS mutation C) EGFR wild-type, KRAS wild-type (WT). If ≧2/14 patients in A, B or C were progression-free at 16 weeks, enrollment increased to 23 patients for that cohort. Tumor response was assessed every 8 weeks. Cohort D was added to include 35 additional EGFR wild-type and KRAS wild-type patients with adenocarcinoma histology. FISH analysis for ALK translocation, was performed for Cohorts C and D.

[2] = tested on: Detroit 562 H/N cancer cells; test: Single agent viability assay, Detroit 562, 72 hr; format: cell-based
From the text: Head and neck (H/N) cancer refers to a group of biologically similar cancers originating from the upper autodigestive tract. First line therapies include EGFR inhibitors and platins.

solid tumors [3] = test: Phase I dose escalation study, twice-weekly administration in patients with solid tumors; format: in vivo, human; details: 41 of 54 enrolled patients assessable; 1-hour infusion 2 times per week, 3 weeks on, 1 week dose-free
Method: An open-label Phase 1 dose-escalation study in subjects with solid tumors was performed. […] The first infusion for the first three subjects was staggered by a minimum of 5 days between subjects. This staggered enrollment scheme was followed for the first cohort only.
Subsequent cohorts were originally planned to receive escalating doses of 4, 7, 10, 14, 19, 25, 33, 40 and 48 mg/m^2, provided that the previous dose was well-tolerated during cycle 1 (week 1-4). The dose escalation scheme was updated to 25, 50, 75 and 100 mg/m^2, provided that the previous dose was well-tolerated during cycle 1. Following the completion of enrollment at 50 mg/m^2 twice per week, subsequent cohorts were to be treated at 100 mg/m^2 (100% increase above prior dose) and 120 mg/m^2 (20% increase above prior dose), with further dose increments to be approximately 20% over the previous dose level, until the maximum tolerated dose (MTD) was determined. Enrollment was completed at 100 mg/m^2 and the next doses planned were 120 mg/m^2 and 144 mg/m^2.
There had to be at least three evaluable subjects in a cohort before dose escalation could occur. […] Once a subject experienced a DLT the cohort was expanded to six subjects. If only 1 of 6 subjects experienced a DLT, further dose escalation was allowed. However, if 2 of 3 or 2 of 6 subjects experienced a DLT, dose escalation terminated. […]

[4] = Pharmacokinetics in the Phase 1 combination trial with docetaxel; format: in vivo, human; details: patients
Method: A trial to evaluate three dose-level combinations of docetaxel and the compound of formula (I), administered on a three-week cycle, with the primary objective of determining an optimal dose for future clinical trials was performed. […] The standard of care dose level for docetaxel was 75 mg/m^2. A total of 19 patients received at least one dose of study treatment at the cut-off time. The median number of cycles of treatment was 4, with a range of 1 to 11 cycles of treatment. No prophylactic treatment for neutropenia was used.

HCC70 = test: 72 hr viability by CTG, HCC70; format: cell-based; details: Homo sapiens, HCC70, Basal A
Method: Breast cancer is a heterogeneous disease historically broken down into 4 subtypes. Various compounds were tested for their effects in cell viability assays using various breast cancer cell lines. Cellular viability was assessed using the CellTiter-Glo® Luminescent Cell Viability Assay (Promega, Madison, Wis., USA) according to the manufacturer's protocol. […] were seeded into 96-well plates based on optimal growth rates determined empirically for each line. […] CellTiter-Glo® was added (50% v/v) to the cells, and the plates incubated for 10 min prior to luminescent detection in a SpectraMax® Plus 384 microplate reader (Molecular Devices, Sunnyvale, Calif., USA). Data were normalized to percent of control and IC50 values used to determine the sensitivity of each line.

Hs746T = test: 72 hr viability by Syto60, Hs746T; format: cell-based; details: Homo sapiens
Method: Many of the oncoproteins associated with gastric cancer and Hsp90 client proteins including HER2, MET, RAS and the FGFR family. […] Cells were treated for 72 hr and viability determined by CTG (upper) or Syto60 (lower).

[5] = tested on: Chk1 and Chk2 phosphorylation in Detroit 562 head and neck cancer cells; test: Western blot after bleomycin, Detroit 562; format: cell-based; details: 100 nM 24 hours prior to bleomycin (5 μM)
Method: Protein expression of Parp, P-Chk1, P-Chk2, and Gapdh (control) was measured at the indicated time points (1, 4, and 8 hours) after bleomycin treatment.
Protein expression was measured at the indicated time points after bleomycin treatment.

solid tumors [6] = test: Phase 2 study in solid tumors, twice-weekly infusion; format: in vivo, human
From the text: (§1) Serial PK and pharmacodynamic samples were obtained during cycle 1. Safety assessments included frequency and grade of adverse events (AEs), laboratory parameters and ECG changes.

GIST = test: Phase 2 study in gastrointestinal stromal tumors (GIST); format: in vivo, human
Method: GIST status was assessed at 8 weeks per RECIST, until progression.

[7] = Serial PK in patients with solid tumors, twice-weekly infusion; format: in vivo, human
From the text: as §1

[8] = tested on: MET, IGF-IR, AKT in MKN45 cells; test: Western blot of Hsp90 client proteins, MKN45; format: cell-based
[9] = tested on: Hsp90 client proteins in AGS gastric cancer cells; test: Western blot of Hsp90 client proteins, AGS; format: cell-based

Method for metastatic breast cancer: The primary endpoint of the trial was overall response rate using RECIST 1.1. Patients with HER2+ breast cancer were required to have received prior therapy with trastuzumab. No more than 3 lines of chemotherapy in the metastatic setting were permitted, but there was no limit on prior lines of hormone therapy. Patients were evaluated for response after 2 cycles. The trial used a Simon two-stage design requiring at least 3 responses among the first 22 patients, to allow expansion to a total of 40 patients.

SMILES: CC(C)c1cc(-c2nnc(O)n2-c2ccc3c(ccn3C)c2)c(O)cc1O [compound of formula (I), ganetespib]
- Growth of tumor xenografts [1]: effectively suppressed the growth
- Adverse events reported in >20% of patients (NSCLC; 73 patients, 200 mg/m^2 once weekly for 3 of a 4-wk cycle, generally grade 1-2): diarrhea, fatigue, nausea, anorexia, constipation, and dyspnea
- Objective response rate (CR + PR) (NSCLC; ALK+ patients, 4/8): 50%
- Best response reported, cohort C (NSCLC; Cohort C: EGFR wild-type, KRAS wild-type): durable partial response (PR)
- Tolerability (NSCLC; single agent, 200 mg/m^2 once weekly): well-tolerated in patients with NSCLC at 200 mg/m^2 once weekly without severe liver, ocular, cardiovascular or renal toxicity
- Extent of cell kill after 72 hr exposure [2]: A fraction of cells remained viable
- Confirmed partial responses, melanoma (solid tumors [3]): 1 patient
- Confirmed partial responses, triple negative breast cancer (solid tumors [3]): 1 patient
- Effect on docetaxel pharmacokinetics [4]: no effect
- Pharmacokinetics alone versus administered prior to docetaxel [4]: pharmacokinetic similarity
- IC50 (HCC70): 114 nM
- CBR (CR + PR + SD > 6 months) (metastatic breast cancer; ER+/HER2− (N = 6)): 0 patients
- CR (metastatic breast cancer; ER+/HER2− (N = 6)): 0 patients
- ORR (metastatic breast cancer; ER+/HER2− (N = 6)): 0 patients
- PR (metastatic breast cancer; ER+/HER2− (N = 6)): 0 patients
- CBR (CR + PR + SD > 6 months) (metastatic breast cancer; HER2+ (N = 13)): 2 (9%) patients (%)
- CR (metastatic breast cancer; HER2+ (N = 13)): 0 patients
- ORR (metastatic breast cancer; HER2+ (N = 13)): 2 (9%) patients (%)
- PR (metastatic breast cancer; HER2+ (N = 13)): 2 patients
- CBR (CR + PR + SD > 6 months) (metastatic breast cancer; TNBC (N = 3)): 0 patients
- CR (metastatic breast cancer; TNBC (N = 3)): 0 patients
- ORR (metastatic breast cancer; TNBC (N = 3)): 0 patients
- PR (metastatic breast cancer; TNBC (N = 3)): 0 patients
- CBR (CR + PR + SD > 6 months) (metastatic breast cancer; Total (N = 22)): 2 (9%) patients (%)
- CR (metastatic breast cancer; Total (N = 22)): 0 patients
- PR (metastatic breast cancer; Total (N = 22)): 2 (9%) patients (%)
- ORR (metastatic breast cancer; Total (N = 22), 200 mg/m^2 once weekly 3 weeks of 28 day cycle, RECIST 1.1): 2 (9%) patients (%)
- IC50 (Hs746T): 384 nM
- Effect on bleomycin-increased Chk1 and Chk2 phosphorylation [5]: blocked
- Tolerability (solid tumors [6]; twice-weekly): well-tolerated administered twice-weekly
- Response in a patient with metastatic melanoma (solid tumors [6]; twice-weekly dosing): confirmed durable PR by RECIST
- Patients with SD≧8 wks (GIST; 23 evaluable patients): 8 patients
- Patients with SD≧16 wks (GIST; 23 evaluable patients): 4 patients
- Tolerability (GIST; once-weekly dosing): well-tolerated in patients with heavily pre-treated advanced GIST, with no evidence of severe liver, ocular, cardiac or renal toxicity
- Distribution [7]: rapid distribution
- Effect on MET, IGF-IR and AKT [8]: complete degradation of MET and IGF-IR, followed by inactivation of AKT
- Effect on B-RAF expression [9]: enhanced B-RAF expression
- Effect on Hsp90 client protein expression [9]: abolished the expression of EGFR, IGF-IR, C-RAF and their down-stream effectors PI3K/AKT and MAPK
